Results taken from patent US12480137B2, “Plants having increased tolerance to herbicides” (BASF SE, priority 2014, dated 2025).

What was measured:
Assay in all cases: Greenhouse phytotox, pre-emergent treatment
Type in all cases: in vivo, Arabidopsis thaliana
A. thaliana WT L. erecta = system: A. thaliana WT L. erecta
Procedure: (§1) Additionally, M2 or M3 Arabidopsis plants are tested for improved tolerance to cellulose biosynthesis-inhibiting herbicides in greenhouse studies (e. g. with the following cellulose biosynthesis-inhibiting herbicides: 6-cyclopentyl-N4-(2,3,4,5,6-pentafluorophenyl)-1,3,5-triazine-2,4-diamine; 6-(1-fluoro-1-methyl-ethyl)-N4-(2,3,4,5,6-pentafluorophenyl)-1,3,5-triazine-2,4-diamine; N4-(4-chloro-3,5,6-trifluoro-2-pyridyl)-6-(1-fluoro-1-methyl-ethyl)-1,3,5-triazine-2,4-diamine; 6-(2,6-difluorophenyl)-N4-(2,3,5,6-tetrafluorophenyl)-1,3,5-triazine-2,4-diamine; N4-(4-bromo-2,3,5,6-tetrafluoro-phenyl)-6-(1-fluoro-1-methyl-ethyl)-1,3,5-triazine-2,4-diamine.

[1] = system: Cesa1_G1009D, fpx2-3 mutant line
Procedure: as §1

[2] = system: Cesa1_G1013R, fpx2-1 mutant line
Procedure: as §1

[3] = system: Cesa1_P1010L, fpx2-2 mutant line
Procedure: as §1

[4] = system: Cesa3_S1037F, fpx1-2 mutant line
Procedure: as §1

[5] = system: Cesa3_S1040L, fpx1-1 mutant line
Procedure: as §1

[6] = system: Cesa3_S983F, fpx1-3 mutant line
Procedure: as §1

Structure (SMILES): CC(C)(F)c1nc(N)nc(Nc2c(F)c(F)c(Br)c(F)c2F)n1 [N4-(4-bromo-2,3,5,6-tetrafluoro-phenyl)-6-(1-fluoro-1-methyl-ethyl)-1,3,5-triazine-2,4-diamine]
- Phytotox value on a scale from 0-100 (100 is 100% damage) (A. thaliana WT L. erecta; 0.25 g ai/ha): 8
- Phytotox value on a scale from 0-100 (100 is 100% damage) (A. thaliana WT L. erecta; 0.98 g ai/ha): 35
- Phytotox value on a scale from 0-100 (100 is 100% damage) (A. thaliana WT L. erecta; 3.91 g ai/ha): 97
- Phytotox value on a scale from 0-100 (100 is 100% damage) (A. thaliana WT L. erecta; 15.63 g ai/ha): 100
- Phytotox value on a scale from 0-100 (100 is 100% damage) ([1]; 0.25 g ai/ha): 50
- Phytotox value on a scale from 0-100 (100 is 100% damage) ([1]; 0.98 g ai/ha): 35
- Phytotox value on a scale from 0-100 (100 is 100% damage) ([1]; 3.91 g ai/ha): 68
- Phytotox value on a scale from 0-100 (100 is 100% damage) ([1]; 15.63 g ai/ha): 99
- Phytotox value on a scale from 0-100 (100 is 100% damage) ([2]; 0.25 g ai/ha): 10
- Phytotox value on a scale from 0-100 (100 is 100% damage) ([2]; 0.98 g ai/ha): 10
- Phytotox value on a scale from 0-100 (100 is 100% damage) ([2]; 3.91 g ai/ha): 35
- Phytotox value on a scale from 0-100 (100 is 100% damage) ([2]; 15.63 g ai/ha): 73
- Phytotox value on a scale from 0-100 (100 is 100% damage) ([3]; 0.25 g ai/ha): 25
- Phytotox value on a scale from 0-100 (100 is 100% damage) ([3]; 0.98 g ai/ha): 25
- Phytotox value on a scale from 0-100 (100 is 100% damage) ([3]; 3.91 g ai/ha): 88
- Phytotox value on a scale from 0-100 (100 is 100% damage) ([3]; 15.63 g ai/ha): 99
- Phytotox value on a scale from 0-100 (100 is 100% damage) ([4]; 0.25 g ai/ha): 28
- Phytotox value on a scale from 0-100 (100 is 100% damage) ([4]; 0.98 g ai/ha): 18
- Phytotox value on a scale from 0-100 (100 is 100% damage) ([4]; 3.91 g ai/ha): 33
- Phytotox value on a scale from 0-100 (100 is 100% damage) ([4]; 15.63 g ai/ha): 30
- Phytotox value on a scale from 0-100 (100 is 100% damage) ([5]; 0.25 g ai/ha): 13
- Phytotox value on a scale from 0-100 (100 is 100% damage) ([5]; 0.98 g ai/ha): 5
- Phytotox value on a scale from 0-100 (100 is 100% damage) ([5]; 3.91 g ai/ha): 63
- Phytotox value on a scale from 0-100 (100 is 100% damage) ([5]; 15.63 g ai/ha): 93
- Phytotox value on a scale from 0-100 (100 is 100% damage) ([6]; 0.25 g ai/ha): 35
- Phytotox value on a scale from 0-100 (100 is 100% damage) ([6]; 0.98 g ai/ha): 23
- Phytotox value on a scale from 0-100 (100 is 100% damage) ([6]; 3.91 g ai/ha): 25
- Phytotox value on a scale from 0-100 (100 is 100% damage) ([6]; 15.63 g ai/ha): 45
